The subject of series [1] is Bloodstream Trypanosoma brucei brucei Lister 427 (STIB 795). Kind of series: Growth inhibition assay for T. brucei brucei. The series is classed as cell-based. Conditions: pEC50=−logEC50; 72 h, resazurin.
For series [2], the system named is Caco-2 cells. Kind of series: Caco-2 permeability. Format: in vitro ADME.
Series [3] has as its system CYP3A4. Kind of series: CYP3A4 induction. Format: in vitro ADME. The following applies: in words.
Series [4] can be described thus: Pharmacokinetics in female NMRI mice. The series is classed as in vivo, mouse.

Regarding “N^6-(tert-butyl)-N^2-(thiophen-3-yl)-9H-purine-2,6-diamine [Compound 5r]”, the “T. brucei pEC50” value in series [1] stood at 7.1.

The term Cmax denotes the highest concentration seen after dosing. In the case of `Cn1nccc1Nc1nc(NCC(F)(F)F)c2nc[nH]c2n1` [Compound 4aa, N^2-(1-methyl-1H-pyrazol-5-yl)-N^6-(2,2,2-trifluoroethyl)-9H-purine-2,6-diamine], in series [2] (Caco-2), the “A-B Permeability Ranking” value is given as “Higher”. In series [2] (in words), the Caco-2 efflux entry is recorded as “rapidly effluxed” and the Caco-2 permeability entry is on record as “Permeable”. Moreover, the “CYP3A4 Liability (induction)” value in series [3] is given as “does not have CYP3A4 induction liability”. Moreover, in series [4] (female, NMRI, mouse, in vivo, ip, 10 mg/kg, Mean Cmax ± SD, non-infected female NMRI mice, 10 mg/kg ip, without ABT-pretreatment, blood), the maximum concentration (Cmax) came out at 3670 ± 922 ng/mL. Further, the Mean tmax in series [4] (infected female NMRI mice, 30 mg/kg ip + ABT, day 1, blood) is 30 to 120 min.

The values above are taken from PMC8372979 (Journal of medicinal chemistry, 2020).
